{"source": "patent US20110105517A1", "about": "“THERAPEUTIC AGENT FOR AMYOTROPHIC LATERAL SCLEROSIS” (priority 2008, published 2011)", "key": {"HeLa cells": {"system": "HeLa cells", "assay": "Cell viability assay 1: oxidative stress (menadione)-induced cell death in non-neuronal cells", "type": "cell-based", "conditions": "pre-treatment 2.5, 5, 10 μM for 24 h; menadione 20-80 μM for 4 h; AlamarBlue; versus DMSO alone; FIG. 1", "experimental": "HeLa cells (1.0×10^6) were plated in 75 cm^2 flask and were cultured in the presence of 5% CO2 at 37° C. for 16 hours. Bromocriptine mesylate in DMSO was then added to the medium at the final concentrations of 2.5, 5 and 10 μM. The amount of DMSO used in each samples were adjusted to that used in the 10 μM sample. Cells were cultured for additional 24 hours (bromocriptine mesylate treatment). As a negative control, DMSO without bromocriptine mesylate was added. Menadione was then added to the HeLa cells treated with bromocriptine mesylate at the final concentrations of 0, 20, 40, 60 and 80 μM and the cells were further incubated in 5% CO2, at 37° C. (oxidative stress treatment). As a negative control, 0.1% Triton X-100/DMEM/10% FBS was added in place of menadione. After 4 hours of oxidative stress treatment, the medium was replaced with that containing AlamarBlue, and the cell culture was resumed in 5% CO2, at 37° C. After 16 hours of incubation, the number of viable cells was counted by measuring the fluorescence at excitation wave length 530 nm/emission wave length 580 nm, using the fluorescence plate reader.\nThe X-axis of the graph represents menadione concentration (μM), while the Y-axis of the graph represents cell viability (%). The Y-axis values under each condition are shown as viability relative to the no menadione treatment (0 μM) control which is set at 100%."}, "ALS-SOD1^H46R mouse [1]": {"system": "ALS-SOD1^H46R mouse", "assay": "Efficacy test in vivo: survival after the onset of the disease", "conditions": "i.p. once a day from onset, non-administered group 27.8±2.1 day, FIG. 4", "experimental": "(§1) In this test, ALS-SOD1^H46R mouse carrying the mutation in the SOD1 gene (SOD1^H46R) (ALS1) was used. The mice were housed at 23° C. with a 12 hr light/dark cycle. Bromocriptine mesylate was suspended in 0.5% carboxymethylcellulose sodium (CMC-Na). The administration of bromocriptine mesylate was initiated when the neurological symptoms was first observed (first manifestation of the illness) in the ALS-SOD1^H46R mouse in the balance beam test. The dosage of bromocriptine mesylate was 10 mg or 1 mg per 1 kg of body weight in each of the animals, and administered by intraperitoneal injection once a day until the animals died (group treated with bromocriptine mesylate). As the negative control, the mice were administered with 0.5% CMC-Na (5 ml/kg) (group not treated with bromocriptine mesylate). Balance beam test (stainless beam: 50 cm long, 0.9 cm wide) was employed to evaluate the appearance of neurological symptoms. The evaluation of symptoms was carried out in 5 grades. Grade 3 was considered to be the first manifestation of the symptoms. The evaluation criteria used are shown below."}, "ALS-SOD1^H46R mouse [2]": {"system": "ALS-SOD1^H46R mouse", "assay": "Efficacy test in vivo: motor function in vertical climb test", "conditions": "10 mg/kg i.p. once a day from onset of symptoms; n=5; non-administered group deteriorated significantly; FIG. 3", "experimental": "as §1\nThe motor functions of mice in bromocriptine mesylate administered group and non-administered group were evaluated by vertical climb test (stainless bar: 50 cm long, 0.9 cm wide). […] The best score among the 5 test results was recorded as the motor function value. […]"}, "[3]": {"system": "differentiated SH-SY5Y cells", "assay": "Cell viability assay 2: oxidative stress (menadione)-induced cell death in differentiated neuronal cells", "type": "cell-based, human", "conditions": "retinoic acid-differentiated cells; pre-treatment 5, 10, 20, 40 μM for 24 h; menadione 20-50 μM for 4 h; AlamarBlue; versus DMSO alone; FIG. 2", "experimental": "SH-SY5Y cells were suspended in DMEM supplemented with 10% FBS, were plated at 1.0×10^4 cells/well in 96 well microtiter plate, and were incubated in 5% CO2 at 37° C. for 24 hours. The medium was then replaced with DMEM supplemented with 10% FBS and 10 μM all-trans retinoic acid (RA) (DMEM/FBS/RA), and after 5 days, bromocriptine mesylate in DMSO was added to the medium at the final concentrations of 5, 10, 20 and 40 μM. The amount of DMSO used in each samples were adjusted to that used in the 40 μM sample. The cells were cultured for additional 24 hours (bromocriptine mesylate treatment). As a negative control, DMSO without bromocriptine mesylate was added. Menadione was then added to the SH-SY5Y cells treated either with DMSO alone or bromocriptine mesylate at the final concentrations of 0, 20, 30, 40, and 50 μM, and cultured in 5% CO2 at 37° C. (oxidative stress treatment). As a negative control, 0.1% Triton X-100/DMEM/10% FBS was added. After 4 hours of oxidative stress treatment, the medium was replaced with that containing AlamarBlue, and the cell culture was resumed in 5% CO2, at 37° C. After 16 hours of incubation, the number of viable cells was counted by measuring the fluorescence at excitation wave length 530 nm/emission wave length 580 nm, using the fluorescence plate reader. […]"}}, "note": "Structures can show the parent of a compound that is named as a salt.", "data": [{"compound": "CC(C)C[C@H]1C(=O)N2CCC[C@H]2[C@]2(O)O[C@](NC(=O)[C@@H]3C=C4c5cccc6[nH]c(Br)c(c56)C[C@H]4N(C)C3)(C(C)C)C(=O)N12", "note": "[bromocriptine mesylate]", "values": [{"measurement": "viabilities of HeLa cells exposed to oxidative stress by menadione", "setting": "HeLa cells", "value": "increased depending on the concentration of bromocriptine mesylate"}, {"measurement": "overall survival after the onset of the disease", "setting": "ALS-SOD1^H46R mouse [1]; 1 mg/kg, n=4", "value": "35.3 ± 6.0", "unit": "days"}, {"measurement": "overall survival after the onset of the disease", "setting": "ALS-SOD1^H46R mouse [1]; 10 mg/kg, n=5", "value": "38.0 ± 2.9", "unit": "days"}, {"measurement": "motor function (vertical climb test) at 21 weeks of age", "setting": "ALS-SOD1^H46R mouse [2]", "value": "largely unchanged"}, {"measurement": "viabilities of SH-SY5Y cells exposed to oxidative stress by menadione", "setting": "[3]", "value": "increased depending on the concentration of bromocriptine mesylate"}]}]}
